Laboratory results: the METLIN SMRT retention time set (Domingo-Almenara et al. 2019)
Each block holds one compound with its values, some of them ahead of it.

Experiment: gradient 5% acetonitrile 3 min, to 50% in 2 min, to 85% in 15 min, held 3 min, 100 µL/min
Conditions: column: Zorbax Extend-C18 2.1 x 50 mm; eluents: water / acetonitrile, 0.1% formic acid
Summary of the method: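 The mobile phases were water and acetonitrile, each with 0.1% formic acid, pumped at 100 μL/min through a Zorbax Extend-C18 column (2.1 × 50 mm, 1.8 μm). Pure standards were injected as mixtures of ~100 molecules and detected by a quadrupole time-of-flight mass spectrometer in positive and negative ionization mode. Retention time came from computationally picked adduct peaks, each inspected by hand.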

- RP-LC retention time: 861 s
Structure (SMILES): C=CCNC(=O)NC1CCN(C2=NS(=O)(=O)C(c3cccc(Cl)c3)=C2C)CC1

- RP-LC retention time: 765 s
Structure (SMILES): CCOC(=O)Cn1nc2ccc(S(=O)(=O)N3CCSCC3)cn2c1=O

- RP-LC retention time: 792 s
Structure (SMILES): O=C(NCC1CCCO1)N1CCCn2nc(-c3cccc(Cl)c3)cc2C1 (configuration not stated)

- RP-LC retention time: 615 s
Structure (SMILES): Cc1nn(C(C)C(=O)NCCCN2CCOCC2)c(=O)c2nn(-c3ccccc3)c(C)c12 (configuration not stated)

- RP-LC retention time: 765 s
Structure (SMILES): O=C(c1c(F)cccc1F)N1CCN=C1N1CCN(c2cccc(Cl)c2)CC1

- RP-LC retention time: 564 s
Structure (SMILES): CCN1CCN(CCCNC(=O)C2CCN(Cc3cn(C)c4ccc(Cl)cc34)CC2)CC1

- RP-LC retention time: 956 s
Structure (SMILES): CC1=C(C(=O)N(CC(=O)NCCc2ccccc2)c2ccc(Cl)cc2)SCCO1

- RP-LC retention time: 733 s
Structure (SMILES): CCOc1ccc(NC(=O)N2CCN(Cc3nc4ccc(C)cc4o3)CC2)cc1

- RP-LC retention time: 685 s
Structure (SMILES): Cn1c(=O)c(=O)n(C)c2cc(N3CCCC3)c(NC(=O)Cc3ccc(Cl)cc3)cc21

- RP-LC retention time: 732 s
Structure (SMILES): Cc1ccc(-c2ccc(N3CCCC(C(=O)NCc4ccc5c(c4)OCO5)C3)nn2)cc1 (configuration not stated)

- RP-LC retention time: 599 s
Structure (SMILES): Cc1cc(C(=O)N2CCCn3ccnc3C2C2CCCC2)on1 (configuration not stated)

- RP-LC retention time: 680 s
Structure (SMILES): O=C(Cn1c(-c2cccs2)cc2cc(F)ccc21)NCCN1CCOCC1

- RP-LC retention time: 1010 s
Structure (SMILES): Cc1ccc(C)c(Sc2ccc(N3CCC(C(=O)NCCC4=CCCCC4)CC3)nn2)c1

- RP-LC retention time: 894 s
Structure (SMILES): CCc1ccccc1N(C(=O)C1CCCCC1)C1C=CS(=O)(=O)C1 (configuration not stated)

- RP-LC retention time: 628 s
Structure (SMILES): CSc1ccccc1C(=O)N1CCC(C(=O)NCc2nc(C)no2)CC1

- RP-LC retention time: 675 s
Structure (SMILES): CC(=O)Nc1nsc(N2CCC(C(=O)N3CCN(c4ccc(C)cc4)CC3)CC2)n1

- RP-LC retention time: 958 s
Structure (SMILES): Cc1cccc(NC(=O)CN2C(=O)CCCc3cc(S(=O)(=O)N4CCCCC4)ccc32)c1

- RP-LC retention time: 618 s
Structure (SMILES): COc1ccc(C(=O)N2C[C@@H]3C[C@H]2C[C@@H]3NC(=O)c2cccnc2)cc1F

- RP-LC retention time: 599 s
Structure (SMILES): CCOC(=O)c1c(C)[nH]c(C)c1S(=O)(=O)NCC(=O)N1CCN(c2ccccn2)CC1

- RP-LC retention time: 1020 s
Structure (SMILES): O=C(Nc1ccc(Cl)cc1)C(=O)c1cn(CC(=O)N2CCCC2)c2ccccc12

- RP-LC retention time: 979 s
Structure (SMILES): O=C(Cn1nc(N2CCSCC2)c2ccccc2c1=O)Nc1ccccc1Cl

- RP-LC retention time: 984 s
Structure (SMILES): C=CCNc1nc(-c2ccc(Cl)cc2)cs1

- RP-LC retention time: 599 s
Structure (SMILES): O=C(NCCN1CCOCC1)c1cccc(Nc2c(-c3ccc(Cl)cc3)nc3cnccn23)c1

- RP-LC retention time: 921 s
Structure (SMILES): COc1nccnc1NC1CCN(C(=O)Cc2ccsc2)CC1

- RP-LC retention time: 981 s
Structure (SMILES): COc1ccc(CNC(=O)C2(C)CCCN(S(=O)(=O)c3ccc(Cl)cc3)C2)cc1 (configuration not stated)

- RP-LC retention time: 696 s
Structure (SMILES): Cc1cc(NC(=O)C2CCN(C(=O)COc3ccccc3F)CC2)no1

- RP-LC retention time: 647 s
Structure (SMILES): O=C(CSc1ccc(N2CCCC2)nn1)Nc1ccc(Cl)cc1

- RP-LC retention time: 1290 s
Structure (SMILES): Cc1ccc(-c2noc(C3CCCN3S(=O)(=O)c3ccc(C)c(Cl)c3)n2)cc1 (configuration not stated)

- RP-LC retention time: 857 s
Structure (SMILES): Cc1noc(-c2cccc(OC3CN(C(=O)Cc4ccsc4)C3)c2)n1

- RP-LC retention time: 602 s
Structure (SMILES): CC1=C(c2ccc(F)cc2)S(=O)(=O)N=C1N1CCCN(C(=O)NC(C)(C)C)CC1

- RP-LC retention time: 943 s
Structure (SMILES): CCCn1cc(C2=CCN(C(=O)NC3CCCCC3)CC2)c2cccnc21

- RP-LC retention time: 570 s
Structure (SMILES): CCN1C(=O)c2cc(C(=O)NCc3ccc(N(C)C)cc3)nn2CC1(C)C(=O)NC1CCCC1 (configuration not stated)

- RP-LC retention time: 1100 s
Structure (SMILES): COc1cccc(CNC(=O)C2CCCN(c3nccnc3Sc3ccccc3)C2)c1 (configuration not stated)

- RP-LC retention time: 782 s
Structure (SMILES): O=C(Cn1c(=O)c(CCC(=O)NC2CCCC2)nc2ccccc21)NCc1ccccc1

The remaining lines, values behind:

Structure (SMILES): CCN(CC)S(=O)(=O)c1cccc(-c2nnc(-c3ccccc3Br)o2)c1
- RP-LC retention time: 1100 s

Structure (SMILES): Fc1ccc(F)c(CN2CCCCC2c2nc(-c3cnccn3)no2)c1 (configuration not stated)
- RP-LC retention time: 918 s

Structure (SMILES): CCOC(=O)c1ccc2c(=O)c(C(=O)OCC)c[nH]c2c1
- RP-LC retention time: 661 s

Structure (SMILES): CN(C)C(=O)c1cn(C2CN(C(=O)c3cccc4[nH]ccc34)C2)nn1
- RP-LC retention time: 608 s

Structure (SMILES): CCOc1ccc(S(=O)(=O)N(CC(=O)N2CCNCC2)CC2CCCO2)cc1 (configuration not stated)
- RP-LC retention time: 626 s

Structure (SMILES): COc1cc(OC)cc(C(=O)N2C[C@@H]3C[C@H]2C[C@@H]3NC(=O)c2ccccc2)c1
- RP-LC retention time: 732 s

Structure (SMILES): Nc1ccc2nc3ccc(=O)cc-3n(-c3ccccc3)c2c1
- RP-LC retention time: 614 s

Structure (SMILES): CCCCOc1ccc(-c2ccc(=O)n(Cc3nc(-c4cc(OC)c(OC)c(OC)c4)no3)n2)cc1
- RP-LC retention time: 1200 s

Structure (SMILES): CC(C)CCNC(=O)C1(C)CN(S(=O)(=O)c2ccccc2)CC(=O)N1c1ccc(F)cc1 (configuration not stated)
- RP-LC retention time: 959 s

Structure (SMILES): O=C(c1cc2c(s1)CCCC2)N1CCN(c2nnc3ccccn23)CC1
- RP-LC retention time: 746 s

Structure (SMILES): Cc1ccc(C)c(CN2CCCN(c3ncccc3-c3nc(C(C)C)no3)CC2)c1
- RP-LC retention time: 790 s

Structure (SMILES): O=C(Nc1nc2c(s1)CCC2)c1ccc2c(c1)OCO2
- RP-LC retention time: 812 s

Structure (SMILES): CCOC(=O)C1CC(=O)c2cc(OC)c(OC)cc2C1 (configuration not stated)
- RP-LC retention time: 812 s

Structure (SMILES): COc1cc(NC(=O)C2CCN(S(=O)(=O)c3ccc4c(c3)CCCC(=O)N4)CC2)cc(OC)c1
- RP-LC retention time: 762 s

Structure (SMILES): Cc1ccc(-n2ncc3c(=O)n(Cc4nc(-c5cccc(Br)c5)no4)cnc32)cc1
- RP-LC retention time: 1180 s

Structure (SMILES): CC(C)Cc1ccc(S(=O)(=O)N2CCC3(CC2)CCC(O)(CN2CCCC2)CC3)cc1
- RP-LC retention time: 786 s

Structure (SMILES): Clc1ccc(-c2csc(N3CCN(c4nc(-c5ccccc5)cs4)CC3)n2)cc1
- RP-LC retention time: 739 s

Structure (SMILES): CN(Cc1ccccc1)C(=O)C1(c2ccc(NC(=O)C3CC3)cc2)CCCCC1
- RP-LC retention time: 1060 s

Structure (SMILES): CCCn1c(-c2cccc(C(=O)NC(C)c3ccccc3)c2)nc2cccnc21 (configuration not stated)
- RP-LC retention time: 824 s

Structure (SMILES): COCC1(O)CCOC2(CCN(C(=O)c3cccs3)CC2)C1 (configuration not stated)
- RP-LC retention time: 621 s

Structure (SMILES): COCCC(=O)Nc1cnn(-c2ncc(N3CCCCC3)cn2)c1
- RP-LC retention time: 667 s

Structure (SMILES): Cc1ccc(-c2coc(-c3ccc(NC(=O)C(C)(C)C)cc3)n2)cc1
- RP-LC retention time: 1220 s

Structure (SMILES): CO[C@@H]1[C@@H](OC(N)=O)[C@H](O)[C@H](Oc2ccc3c(O)c(NC(=O)c4ccc(O)c(CC=C(C)C)c4)c(=O)oc3c2C)OC1(C)C
- RP-LC retention time: 979 s

Structure (SMILES): CC(=O)Nc1ccc(-c2nc(-c3cccc(-c4ccnn4C)c3)no2)cc1
- RP-LC retention time: 1140 s

Structure (SMILES): COc1ccc(-c2csc(Nc3cccc(C)n3)n2)cc1
- RP-LC retention time: 821 s

Structure (SMILES): O=c1c2cc3c(cc2nc(SCc2nc(-c4ccc(F)cc4)no2)n1Cc1ccncc1)OCO3
- RP-LC retention time: 799 s

Structure (SMILES): Cc1ccccc1CNS(=O)(=O)c1c(C)sc(C)c1-c1n[nH]c(C)c1C
- RP-LC retention time: 1060 s

Structure (SMILES): Cc1ccc2nc(C(=O)NC(C)c3ccc(F)cc3)cn2c1 (configuration not stated)
- RP-LC retention time: 670 s

Structure (SMILES): COCCN1CCC(N2CCN(S(=O)(=O)c3ccc(C(F)(F)F)cc3)CC2)C1=O (configuration not stated)
- RP-LC retention time: 625 s

Structure (SMILES): Cc1nc(C(=O)OCc2cc(-c3cccs3)on2)cs1
- RP-LC retention time: 785 s

Structure (SMILES): CCC(C)NC(=O)N1CC(Oc2ccc(-c3nc(C)no3)cc2)C1 (configuration not stated)
- RP-LC retention time: 873 s

Structure (SMILES): Cc1ccc2c(C(=O)NCc3ccccc3C)cc(NC(=O)C(C)C)cc2n1
- RP-LC retention time: 671 s

Structure (SMILES): CCc1nc2cc(-c3noc(-c4ccc(OC)c(OC)c4)n3)ccc2o1
- RP-LC retention time: 1080 s

Structure (SMILES): COc1cc(NS(=O)(=O)c2ccc(N)cc2)nc(OC)n1
- RP-LC retention time: 680 s

Structure (SMILES): CNC(=O)CCc1nc2ccccc2n(CC(=O)NCCc2ccc(S(N)(=O)=O)cc2)c1=O
- RP-LC retention time: 612 s

Structure (SMILES): CCCNc1nc(C(=O)OCC)nc2ccccc12
- RP-LC retention time: 626 s

Structure (SMILES): COc1c(C)cnc(Cn2ccn3nc(-c4ccc(F)cc4)c(CO)c3c2=O)c1C
- RP-LC retention time: 843 s

Structure (SMILES): Cc1ccc(S(=O)(=O)N2CCC(N3CC(F)(F)C[C@H]3CN(C)C)CC2)c(C)c1
- RP-LC retention time: 715 s

Structure (SMILES): Cc1oc2ccn(Cc3ccccc3F)c(=O)c2c1C(=O)NCc1ccc(F)cc1
- RP-LC retention time: 1090 s

Structure (SMILES): CS(=O)(=O)N1CCCN(C(=O)Nc2ccccc2)CC1
- RP-LC retention time: 649 s

Structure (SMILES): Cc1ccc(-n2nc3c(=O)n(CCCC(=O)NCc4ccc(C)o4)nc(C)c3c2C)cc1
- RP-LC retention time: 817 s

Structure (SMILES): O=C(NCCN1CCCC1)c1nnc(-c2ccc(S(=O)(=O)N3CCCC3)cc2)o1
- RP-LC retention time: 602 s

Structure (SMILES): COc1ccc(Cc2nnc(SCC(=O)Nc3nc(-c4ccccc4)c(C)s3)o2)cc1
- RP-LC retention time: 1020 s

Structure (SMILES): COc1cccc(C(=O)N2C[C@@H]3C[C@H](NC(=O)c4cccnc4)[C@H]2C3)c1OC
- RP-LC retention time: 619 s

Structure (SMILES): Cc1ccc(CNC(=O)Nc2ccc(-c3nc(-c4cc(C)ccc4C)co3)cc2)cc1
- RP-LC retention time: 1240 s

Structure (SMILES): COc1cc(-c2nnc(SCc3c(F)cccc3Cl)o2)cc(OC)c1OC
- RP-LC retention time: 1070 s

Structure (SMILES): CCc1ccc(S(=O)(=O)Nc2ccc(-c3cn4ccc(C)nc4n3)cc2)cc1
- RP-LC retention time: 696 s

Structure (SMILES): CCOc1cc(C(=O)Nc2nc(-c3ccc4c(c3)N(C)C(=O)CO4)cs2)cc(OCC)c1OCC
- RP-LC retention time: 1140 s

Structure (SMILES): CCCN1C(=O)COc2ccc(-c3noc(-c4cccc(Br)c4)n3)cc21
- RP-LC retention time: 1400 s

Structure (SMILES): Cc1noc(-c2ccnc(-n3cnc(C(=O)NCCc4ccc(Cl)cc4)c3)c2)n1
- RP-LC retention time: 683 s

Structure (SMILES): Cn1cc2c(n1)c(=O)n(Cc1ccc(F)cc1)c1nn(Cc3ccccc3F)c(=O)n21
- RP-LC retention time: 1020 s

Structure (SMILES): CCc1ccc(-c2csc(Nc3ccc(S(=O)(=O)Nc4nc(C)cc(C)n4)cc3)n2)cc1
- RP-LC retention time: 1040 s

Structure (SMILES): O=C(CCCN1CCN(Cc2ccc(F)cc2)C(=O)C1=O)NCc1ccc(F)cc1
- RP-LC retention time: 721 s
